Results from article PMC10301432, “Antiplasmodial, Trypanocidal, and Genotoxicity In Vitro Assessment of New Hybrid α,α-Difluorophenylacetamide-statin Derivatives” (Pharmaceuticals, 2023).
Counter-ions that a name gives are not always drawn. Like-named read-outs stand apart in the source and are kept apart here.

Key:
[1] = system: P. falciparum parasites (W2 clone) chloroquine-resistant; test: Antiplasmodial activity, anti-HRPII assay; type: cell-based, Plasmodium falciparum; settings: for EC50: Plasmodium falciparum, W2, 24 h; for SI: LC50 (HepG2)/EC50 (P. falciparum); for Antiplasmodial Activity: summarized outcome
Description: P. falciparum W2 clone was maintained in continuous culture as previously described. […] Prior to testing, the ring-stage parasites were synchronized using sorbitol.
The test quantification was read at 450 nm on a spectrophotometer (SpectraMax340PC384, Molecular Devices Sunnyvale, CA, USA), and the drug activity was expressed as the half-maximal inhibitory concentration (EC50) compared to the drug-free controls using the curve-fitting software Origin 8.0 (OriginLab Corporation, Northampton, MA, USA).

HepG2 cells = test: In vitro micronuclei assay, HepG2; type: cell-based, human; settings: human, 3 h
Procedure: Fresh HepG2 and CHO-K1 cells were seeded at the density of 1 × 10^5 cells/mL into 24-well plates (1 mL/per well). The compounds 13 (a–d) were then added to the medium to final concentrations of 500, 1000 and 2000 µM and incubation continued for 3 h or 24 h. DMSO 10% was used as the negative control, and, BaP (80 µM) for HepG2 and MMC (5 µM) for CHO-K1 were the positive controls. After exposure to the compounds, the cells were incubated for more than 24 h under growth conditions before quantification of the micronuclei and cytotoxicity. The cytogenetic studies were carried out in triplicate as described previously (see [51]). In order to determine the mitotic index and the number of cells with micronuclei, the medium was replaced by a cold methanol-glacial acetic acid (3:1) fixative for 30 min, and the cells then rinsed with distilled water for 2 min and air dried. The fixed cells were stained with 4,6-diamidino-2-phenylindole (DAPI) ([…]) dissolved in McIlvaine buffer (0.1 M citric acid plus 0.2 M Na2HPO4, pH 7.0) for 60 min, washed with McIlvaine buffer for 5 min, briefly rinsed with distilled water and mounted in glycerol. To determine the mitotic index and the number of cells with micronuclei, 1000 cells per well (3000 cells per concentration) were analyzed under a fluorescence microscope. The results for micronuclei were presented as the percentage of cells containing micronuclei in the 3000 cells/concentration group analyzed. Cells that glowed brightly and had homogenous nuclei were considered as having normal phenotypic morphology. Apoptotic nuclei were identified by the condensed chromatin at the periphery of the nuclear membrane or by fragmented nuclear body morphology. Necrotic cells presented chromatin forms with irregularly shaped aggregates, a pyknotic nucleus (shrunken and darkly stained) and cell membrane disruption, with cellular debris spilled into the extracellular milieu. Once again, 3000 cells were counted and the percentage of viable cells was evaluated, discounting apoptotic and necrotic cells. Statistical differences between the groups were analyzed by two-way ANOVA (p < 0.01) and Tukey’s post hoc test.

[2] = system: intracellular forms of T. cruzi (Tulahuen strain transfected with β-galactosidase); test: Activity against intracellular T. cruzi in L929 cells; type: cell-based, Trypanosoma cruzi; settings: for EC50: Trypanosoma cruzi, L929, intracellular forms, Tulahuen strain, read-out: EC50; for EC50 / 10µM (% of Parasite Lysis): 96 h; for 10µM (% of Parasite Lysis): fixed concentration 10 µM
Procedure: Tissue culture-derived trypomastigotes (Tulahuen strain expressing the E. coli β-galactosidase gene) were maintained in L929 cell lines and collected from the supernatant after 96 h of parasite infection, following previously established protocols. Briefly, after 24 h of L929 platting (4 × 10^3 cells/well), the cultures were incubated with trypomastigotes (10:1 parasite/host cell ratio) for 2 h at 37 °C. Then, the cell cultures were rinsed to remove non-internalized parasites and then further incubated for 24 h at 37 °C. Then the infected cultures were followed using two sequential protocols. […] After this period, 50 µL chlorophenol red glycoside (500 µM) in 0.5% Nonidet P40 was added to each well and the plate was incubated for more than 18 h at 37 °C, after which the absorbance was measured at 570 nm. […] Controls with untreated and Bz-treated cells are run in parallel. The results were expressed as the percent difference in the reduction between treated and untreated cells.

[3] = system: trypomastigote forms of T. cruzi (Y strain); test: Trypanocidal activity on bloodstream trypomastigotes; type: cell-based, Trypanosoma cruzi; settings: for EC50: Trypanosoma cruzi, bloodstream trypomastigotes, Y strain, 24 h at 37 °C
Procedure: (§1) Bloodstream trypomastigote forms (BT) of the Y strain were obtained from infected albino Swiss mice at the peak of parasitemia, isolated by differential centrifugation and resuspended in DMEM to a parasite concentration of 10^7 cells/mL in the presence of 10% of mouse blood. This suspension (100 µL) was added in the same volume of 13 (a–d) and 14 (a–d) previously prepared at twice the desired final concentrations.

[4] = system: intracellular forms of T. cruzi (Tulahuen strain transfected with β-galactosidase); parameters: method as in PMID 24590476; settings: read-out: EC90 value of Bz against intracellular forms of T. cruzi; cited from earlier work
in vitro [5] = type: cell-based; settings: mouse
Procedure: (§2) Cardiac cell cultures were incubated for 24 h at 37 °C with different concentrations of the compounds (up to 200 µM) diluted in DMEM (without phenol red). Their morphology and spontaneous contractibility were evaluated by light microscopy and then the cellular viability was determined by the PrestoBlue® assay. For this colorimetric bioassay, PrestoBlue® (Invitrogen, Waltham, MA, USA) was added to each well (using a 10:1 medium/dye), the plate was further incubated for 24 h followed by optical density (OD) measurement performed at 570 and 600 nm, as recommended by the manufacturer.

in vitro [6] = type: cell-based; settings: mouse; remark: listed apart in the source
Procedure: Primary cultures of cardiac cells (CC) were obtained as reported in [50]. The cultures were sustained in Dulbecco’s modified Eagle’s medium (DMEM) supplemented with 10% horse serum, 5% fetal bovine serum (FBS), 2.5 mM CaCl2, 1 mM L-glutamine, and 2% chicken embryo extract. Cell cultures were maintained at 37 °C in an atmosphere of 5% CO2, and assays were run at least three times in triplicate.
as §2

in vitro [7] = type: cell-based; settings: human
Procedure: Human hepatocellular carcinoma (HepG2) and Chinese Hamster Ovary (CHO-K1) cells obtained from the American Type Culture Collection (Manassas, VA, USA) were cultured in Eagle’s medium (MEM, Gibco®, Waltham, MA, USA) containing 10% fetal bovine serum (FBS) plus 100 µg/mL streptomycin and 100 µg/mL penicillin at 37 °C in a 5% CO2 atmosphere. Logarithmic-phase cells were used in all the experiments.
Fresh HepG2 and CHO-K1 cells were seeded at a density of 1 × 10^4/well. […] Briefly, after treatment, the culture medium was replaced by 90 μL fresh culture medium and 10 μL WST-1 reagent and incubated at 37 °C and 5% CO2 for 3 h. The absorbance was then measured at 440 nm according to the kit protocol.

T. cruzi = test: Trypanocidal in vitro phenotypic screening, overall outcome; type: cell-based, Trypanosoma cruzi; settings: summarized outcome
Procedure: as §1
Tissue culture-derived trypomastigotes (Tulahuen strain expressing the E. coli β-galactosidase gene) were maintained in L929 cell lines and collected from the supernatant after 96 h of parasite infection, following previously established protocols. Briefly, after 24 h of L929 platting (4 × 10^3 cells/well), the cultures were incubated with trypomastigotes (10:1 parasite/host cell ratio) for 2 h at 37 °C. Then, the cell cultures were rinsed to remove non-internalized parasites and then further incubated for 24 h at 37 °C. Then the infected cultures were followed using two sequential protocols. […] After this period, 50 µL chlorophenol red glycoside (500 µM) in 0.5% Nonidet P40 was added to each well and the plate was incubated for more than 18 h at 37 °C, after which the absorbance was measured at 570 nm. Then, the compounds were next evaluated using dose–response assays in which Tulahuen-infected-L929 cells were exposed to different non-toxic concentrations of each compound (0–50 µM) and then after 96 h of incubation the same procedure was conducted as above reported. Controls with untreated and Bz-treated cells are run in parallel. The results were expressed as the percent difference in the reduction between treated and untreated cells.

[8] = P. falciparum W2 clone, 24 h at 37 °C, read-out: EC50

## CC(C)c1c(C(=O)Nc2ccccc2)c(-c2ccccc2)c(-c2ccc(F)cc2)n1CC[C@@H](O)C[C@@H](O)CC(=O)O [AVA, atorvastatin, reference compound]
[1]; [8]
  EC50: 10.3 ± 1.2 µM
HepG2 cells
  cytotoxicity (survival rate) in micronuclei assay: significant cytotoxic effects upon 1000 µM
[2]
  EC50: 45.3 ± 3.06 µM
  10µM (% of Parasite Lysis): 31.73 ± 5.80%
[3]
  EC50: 7.07 ± 1.78 µM

## O=C(Cn1ccnc1[N+](=O)[O-])NCc1ccccc1 [Benznidazole, benznidazole, reference compound]
[4]
  EC90: 10 µM
In vitro [5]
  CC50 at 96 h: 169 ± 27.2 µM
In vitro [6]
  CC50 at 24 h: > 1000 µM
[2]; LC50 (L929)/EC50 (intracellular forms)
  SI: 92.4
[2]
  EC50: 1.83 ± 0.73 µM
  10µM (% of Parasite Lysis): 87.84 ± 7.08%
[3]; LC50 (cardiac cells)/EC50 (trypomastigotes)
  SI: >77
[3]
  EC50: 13 ± 2 µM

## CCN(CC)CCCC(C)Nc1ccnc2cc(Cl)ccc12 (stereo not drawn) [Chloroquine, chloroquine, reference compound]
[1]
  EC50: 0.59 ± 0.03 µM

## CC(=O)Nc1ccccc1C(F)(F)C(=O)NCC[C@@H](O)C[C@@H](O)CC(=O)O [Compound 14a, Sodium (3R,5R)-7-(2-(2-acetamido-phenyl)-2,2-difluoroacetamide)-3,5-dihydroxyheptanoate salt]
In vitro [7]
  CC50 at 24 h: > 488 µM
[1]
  SI: Inactive
  Antiplasmodial Activity: No
[1]; [8]
  EC50: > 122 µM
In vitro [6]
  CC50 at 24 h: > 500 µM
[3]
  EC50: > 500 µM
T. cruzi
  Trypanocidal Activity: No

## CC(=O)Nc1ccc(C)cc1C(F)(F)C(=O)NCC[C@@H](O)C[C@@H](O)CC(=O)O [Compound 14b, Sodium (3R,5R)-7-(2-(2-acetamido-5-methylphenyl)-2,2-difluoroacetamide)-3,5-dihydroxyheptanoate salt]
In vitro [7]
  CC50 at 24 h: > 472 µM
[1]
  SI: Inactive
  Antiplasmodial Activity: No
[1]; [8]
  EC50: > 118 µM
In vitro [6]
  CC50 at 24 h: > 500 µM
[3]
  EC50: > 500 µM
T. cruzi
  Trypanocidal Activity: No

## CC(=O)Nc1ccc(Cl)cc1C(F)(F)C(=O)NCC[C@@H](O)C[C@@H](O)CC(=O)O [Compound 14c, Sodium (3R,5R)-7-(2-(2-acetamido-5-chlorophenyl)-2,2-difluoroacetamide)-3,5-dihydroxyheptanoate salt]
In vitro [7]
  CC50 at 24 h: > 450 µM
[1]
  SI: Inactive
  Antiplasmodial Activity: No
[1]; [8]
  EC50: > 112 µM
In vitro [6]
  CC50 at 24 h: > 500 µM
[3]
  EC50: > 500 µM
T. cruzi
  Trypanocidal Activity: No

## CC(=O)Nc1ccc(Br)cc1C(F)(F)C(=O)NCC[C@@H](O)C[C@@H](O)CC(=O)O [Compound 14d, Sodium (3R,5R)-7-(2-(2-acetamido-5-bromophenyl)-2,2-difluoroacetamide)-3,5-dihydroxyheptanoate salt]
In vitro [7]
  CC50 at 24 h: > 409 µM
[1]
  SI: Inactive
  Antiplasmodial Activity: No
[1]; [8]
  EC50: > 102 µM
In vitro [6]
  CC50 at 24 h: > 500 µM
[3]
  EC50: > 500 µM
T. cruzi
  Trypanocidal Activity: No
